PubChem BioAssay (NCI)
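These data come from cells grown in 96-well plates and exposed to compound for 48 hours at five concentrations. TGI marks complete inhibition of growth.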

Experiments:
Experiment in all cases: NCI anticancer screen, dose series, 48 h
[1] = tested on: COLO 205 colon
[2] = tested on: SNB-19 CNS
[3] = tested on: UO-31 renal
[4] = tested on: OVCAR-8 ovarian
[5] = tested on: U251 CNS
[6] = tested on: 786-0 renal
[7] = tested on: HCT-116 colon
[8] = tested on: CAKI-1 renal
[9] = tested on: RXF-631 renal
[10] = tested on: SNB-75 CNS
[11] = tested on: HOP-18 NSCLC
[12] = tested on: SF-539 CNS
[13] = tested on: KM20L2 colon
[14] = tested on: HOP-62 NSCLC
[15] = tested on: EKVX NSCLC
[16] = tested on: OVCAR-4 ovarian
[17] = tested on: DLD-1 colon
[18] = tested on: OVCAR-3 ovarian
[19] = tested on: SR leukemia
[20] = tested on: UACC-257 melanoma
[21] = tested on: DMS 114 small cell lung
[22] = tested on: SW-620 colon
[23] = tested on: CCRF-CEM leukemia
[24] = tested on: NCI-H226 lung
[25] = tested on: A549 NSCLC
[26] = tested on: ACHN renal
[27] = tested on: HCT-15 colon
[28] = tested on: HCC-2998 colon
[29] = tested on: SK-OV-3 ovarian
[30] = tested on: HOP-92 NSCLC
[31] = tested on: SK-MEL-5 melanoma
[32] = tested on: SNB-78 CNS
[33] = tested on: M14 melanoma
[34] = tested on: OVCAR-5 ovarian
[35] = tested on: NCI-H522 lung
[36] = tested on: TK-10 renal
[37] = tested on: LXFL 529 NSCLC
[38] = tested on: KM12 colon
[39] = tested on: NCI-H460 lung
[40] = tested on: SF-295 CNS
[41] = tested on: K-562 leukemia
[42] = tested on: SK-MEL-28 melanoma
[43] = tested on: M19-MEL melanoma
[44] = tested on: IGROV1 ovarian
[45] = tested on: SN12C renal
[46] = tested on: LOX IMVI melanoma
[47] = tested on: XF 498 CNS
[48] = tested on: NCI-H23 lung
[49] = tested on: HT29 colon
[50] = tested on: DMS 273 small cell lung
[51] = tested on: MOLT-4 leukemia
[52] = tested on: SK-MEL-2 melanoma
[53] = tested on: UACC-62 melanoma
[54] = tested on: MALME-3M melanoma
[55] = tested on: RPMI-8226 leukemia
[56] = tested on: HL-60(TB) leukemia
[57] = tested on: SF-268 CNS
[58] = tested on: A498 renal

COc1cc2cc[n+]3c4cc(OC)c(OC)cc4c(C)cc3c2cc1OC
TGI [1]: > 100 µM | TGI [2]: > 100 µM | TGI [3]: > 100 µM | TGI [4]: > 100 µM | TGI [5]: > 100 µM | TGI [6]: > 100 µM | TGI [7]: > 100 µM | TGI [8]: > 100 µM | TGI [9]: > 100 µM | TGI [10]: > 100 µM | TGI [11]: > 100 µM | TGI [12]: > 100 µM | TGI [13]: > 100 µM | TGI [14]: > 100 µM | TGI [15]: > 100 µM | TGI [16]: > 100 µM | TGI [17]: > 100 µM | TGI [18]: > 100 µM | TGI [19]: > 100 µM | TGI [20]: > 100 µM | TGI [21]: > 100 µM | TGI [22]: > 100 µM | TGI [23]: > 100 µM | TGI [24]: > 100 µM | TGI [25]: > 100 µM | TGI [26]: > 100 µM | TGI [27]: > 100 µM | TGI [28]: > 100 µM | TGI [29]: > 100 µM | TGI [30]: > 100 µM | TGI [31]: > 100 µM | TGI [32]: > 100 µM | TGI [33]: > 100 µM | TGI [34]: > 100 µM | TGI [35]: > 100 µM | TGI [36]: > 100 µM | TGI [37]: > 100 µM | TGI [38]: > 100 µM | TGI [39]: > 100 µM | TGI [40]: > 100 µM | TGI [41]: > 100 µM | TGI [42]: > 100 µM | TGI [43]: > 100 µM | TGI [44]: > 100 µM | TGI [45]: > 100 µM | TGI [46]: > 100 µM | TGI [47]: > 100 µM | TGI [48]: > 100 µM | TGI [49]: > 100 µM | TGI [50]: > 100 µM | TGI [51]: > 100 µM | TGI [52]: > 100 µM | TGI [53]: > 100 µM | TGI [54]: > 100 µM | TGI [55]: > 100 µM | TGI [56]: > 100 µM

CC[C@@H](C(=O)[C@@H](C)[C@@H](O)[C@H](C)CCc1ccc(C)c(O)c1C(=O)O)[C@H]1O[C@](CC)([C@H]2CC[C@](O)(CC)[C@H](C)O2)C[C@@H]1C
TGI [1]: 4.76 µM | TGI [2]: 5.95 µM | TGI [3]: 12.4 µM | TGI [4]: 14.3 µM | TGI [5]: 6.33 µM | TGI [6]: 13.5 µM | TGI [7]: 9.65 µM | TGI [8]: 11.7 µM | TGI [9]: 10.7 µM | TGI [57]: 9.09 µM | TGI [10]: 7.07 µM | TGI [11]: 13.1 µM | TGI [12]: 5.46 µM | TGI [13]: 11.6 µM | TGI [14]: 4.24 µM | TGI [15]: 9 µM | TGI [16]: 19.2 µM | TGI [17]: 13.8 µM | TGI [18]: 10.9 µM | TGI [20]: 11.3 µM | TGI [21]: 4.15 µM | TGI [22]: 15.6 µM | TGI [23]: 6.29 µM | TGI [24]: 10.8 µM | TGI [25]: 11.9 µM | TGI [26]: 13.2 µM | TGI [58]: 2.37 µM | TGI [27]: 16 µM | TGI [28]: 11.4 µM | TGI [29]: 10.2 µM | TGI [30]: 8.96 µM | TGI [31]: 3.62 µM | TGI [32]: 17.1 µM | TGI [33]: 13.8 µM | TGI [34]: 19.3 µM | TGI [35]: 3.11 µM | TGI [36]: 12.6 µM | TGI [37]: 4.94 µM | TGI [38]: 9.57 µM | TGI [39]: 9.47 µM | TGI [40]: 6.91 µM | TGI [41]: 3.05 µM | TGI [42]: 2.86 µM | TGI [43]: 4.06 µM | TGI [44]: 13.3 µM | TGI [45]: 10 µM | TGI [46]: 12 µM | TGI [47]: 3.41 µM | TGI [48]: 6.87 µM | TGI [49]: 12.6 µM | TGI [50]: 8.1 µM | TGI [51]: 3.12 µM | TGI [52]: 3.82 µM | TGI [53]: 4.04 µM | TGI [54]: 2.42 µM | TGI [55]: 5.28 µM | TGI [56]: 1.54 µM
